In US20240158355A1, “BET SUBFAMILY INHIBITORS AND METHODS USING SAME” (Baylor College of Medicine, priority 2021, published 2024):
pIC50: −log10 of the molar value.

Biological target: BRDT-BD2 (Homo sapiens (Human), UniProt Q58F21)
Assay: AlphaScreen bromodomain proximity assay (competition with biotinylated (+)-JQ1), BRDT-BD2
Format: binding

SMILES	pIC50
CNC(=O)c1ccc(C(=O)Nc2cc(NC(=O)c3ccc4c(c3)c(-c3ccc(N)nc3C)nn4C)ccc2C)cc1 [compound 14, N^1-(5-(3-(6-Amino-2-methylpyridin-3-yl)-1-methyl-1H-indazole-5-carboxamido)-2-methylphenyl)-N^4-methylterephthalamide]	7.03
CC(=O)Nc1cc(NC(=O)c2ccc3c(c2)c(-c2cnc(N)cc2C)nn3C)ccc1C [compound 16, N-(3-Acetamido-4-methylphenyl)-3-(6-amino-4-methylpyridin-3-yl)-1-methyl-1H-indazole-5-carboxamide]	6.90
COc1ccc(NC(=O)c2ccc3c(c2)c(-c2cc4ccccc4n2C)nn3C)cc1 [compound 28, N-(4-Methoxyphenyl)-1-methyl-3-(1-methyl-1H-indol-2-yl)-1H-indazole-5-carboxamide]	6.92
COc1ccc(NC(=O)c2ccc3c(c2)c(-c2cc4ccccc4n2C)nn3C)cc1C [compound 29, N-(4-Methoxy-3-methylphenyl)-1-methyl-3-(1-methyl-1H-indol-2-yl)-1H-indazole-5-carboxamide]	6.95
COc1ccc(NC(=O)c2ccc3c(c2)c(-c2cc4ccccc4n2C)nn3C)cc1OC [compound 30, N-(3,4-Dimethoxyphenyl)-1-methyl-3-(1-methyl-1H-indol-2-yl)-1H-indazole-5-carboxamide]	7.00
COc1ccc(NC(=O)c2ccc3c(c2)c(-c2cc4ccccc4n2C)nn3C)cc1F [compound 31, N-(3-Fluoro-4-methoxyphenyl)-1-methyl-3-(1-methyl-1H-indol-2-yl)-1H-indazole-5-carboxamide]	6.92
COc1ccc(NC(=O)c2ccc3c(c2)c(-c2cc4ccccc4n2C)nn3C)cc1Cl [compound 32, N-(3-Chloro-4-methoxyphenyl)-1-methyl-3-(1-methyl-1H-indol-2-yl)-1H-indazole-5-carboxamide]	6.79
COc1ccc(NC(=O)c2ccc3c(c2)c(-c2cc4ccccc4n2C)nn3C)c(C)c1 [compound 33, N-(4-Methoxy-2-methylphenyl)-1-methyl-3-(1-methyl-1H-indol-2-yl)-1H-indazole-5-carboxamide]	6.74
COc1ccc(NC(=O)c2ccc3c(c2)c(-c2cc4ccccc4n2C)nn3C)c(OC)c1 [compound 34, N-(2,4-Dimethoxyphenyl)-1-methyl-3-(1-methyl-1H-indol-2-yl)-1H-indazole-5-carboxamide]	6.03
COc1ccc(NC(=O)c2ccc3c(c2)c(-c2cc4ccccc4n2C)nn3C)c(F)c1 [compound 35, N-(2-Fluoro-4-methoxyphenyl)-1-methyl-3-(1-methyl-1H-indol-2-yl)-1H-indazole-5-carboxamide]	6.69
COc1ccc(NC(=O)c2ccc3c(c2)c(-c2cc4ccccc4n2C)nn3C)c(Cl)c1 [compound 36, N-(2-Chloro-4-methoxyphenyl)-1-methyl-3-(1-methyl-1H-indol-2-yl)-1H-indazole-5-carboxamide]	< 5.90
CNC(=O)c1ccc(C(=O)Nc2cc(NC(=O)c3ccc4c(c3)c(-c3ccc(OCc5ccccc5)cc3)nn4C)ccc2C)cc1 [compound 37, N^1-(5-(3-(4-(Benzyloxy)phenyl)-1-methyl-1H-indazole-5-carboxamido)-2-methylphenyl)-N^4-methylterephthalamide]	< 5.00
CNC(=O)c1ccc(C(=O)Nc2cc(NC(=O)c3ccc4c(c3)c(-c3ccc(N5CCNCC5)nc3)nn4C)ccc2C)cc1 [compound 38]	< 5.00
CNC(=O)c1ccc(C(=O)Nc2cc(NC(=O)c3ccc4c(c3)c(-c3ccc(N5CCOCC5)nc3)nn4C)ccc2C)cc1 [compound 39, N^1-Methyl-N^4-(2-methyl-5-(1-methyl-3-(6-morpholinopyridin-3-yl)-1H-indazole-5-carboxamido)phenyl)terephthalamide]	< 5.00
CNC(=O)c1ccc(C(=O)Nc2cc(NC(=O)c3ccc4c(c3)c(-c3ccc(Cl)cc3)nn4C)ccc2C)cc1 [compound 40, N^1-(5-(3-(4-Chlorophenyl)-1-methyl-1H-indazole-5-carboxamido)-2-methylphenyl)-N^4-methylterephthalamide]	6.97
CC(=O)Nc1cc(NC(=O)c2ccc3c(c2)c(-c2ccc(Cl)cc2C)nn3C)ccc1C [compound 41, N-(3-Acetamido-4-methylphenyl)-3-(4-chloro-2-methylphenyl)-1-methyl-1H-indazole-5-carboxamide]	7.24
CC(=O)Nc1cc(NC(=O)c2ccc3c(c2)c(-c2ccc(Cl)cc2Cl)nn3C)ccc1C [compound 42, N-(3-Acetamido-4-methylphenyl)-3-(2,4-dichlorophenyl)-1-methyl-1H-indazole-5-carboxamide]	6.49
COc1ccc(NC(=O)c2ccc3c(c2)c(-c2ccncc2)nn3C)cc1 [compound 43, N-(4-Methoxyphenyl)-1-methyl-3-(pyridin-4-yl)-1H-indazole-5-carboxamide]	6.01
COc1ccc(NC(=O)c2ccc3c(c2)c(-c2ccncc2C)nn3C)cc1 [compound 44, N-(4-Methoxyphenyl)-1-methyl-3-(3-methylpyridin-4-yl)-1H-indazole-5-carboxamide]	6.15

SMILES	pIC50
Cc1ccc(NC(=O)c2ccc3c(c2)c(-c2ccc(N)nc2)nn3C)cc1NC(=O)C1CCN(C)CC1 [compound 45, 3-(6-Aminopyridin-3-yl)-1-methyl-N-(4-methyl-3-(1-methylpiperidine-4-carboxamido)phenyl)-1H-indazole-5-carboxamide]	7.24
Cc1ccc(NC(=O)c2ccc3c(c2)c(-c2ccc(N)nc2)nn3C)cc1NC(=O)N1CCNCC1 [compound 46, 3-(6-Aminopyridin-3-yl)-1-methyl-N-(4-methyl-3-(piperazine-1-carboxamido)phenyl)-1H-indazole-5-carboxamide]	7.10
Cc1ccc(NC(=O)c2ccc3c(c2)c(-c2ccc(N)nc2)nn3C)cc1NC(=O)C1CCCCC1 [compound 47, 3-(6-Aminopyridin-3-yl)-N-(3-(cyclohexanecarboxamido)-4-methylphenyl)-1-methyl-1H-indazole-5-carboxamide]	6.95
Cc1ccc(NC(=O)c2ccc3c(c2)c(-c2ccc(N)nc2)nn3C)cc1NC(=O)[C@H]1CC[C@@H](N)CC1 [compound 48, N-(3-((1s,4s)-4-Aminocyclohexane-1-carboxamido)-4-methylphenyl)-3-(6-aminopyridin-3-yl)-1-methyl-1H-indazole-5-carboxamide]	7.29
CNC(=O)[C@H]1CC[C@H](C(=O)Nc2cc(NC(=O)c3ccc4c(c3)c(-c3ccc(N)nc3)nn4C)ccc2C)CC1 [compound 49]	7.17
CN1CCC(NC(=O)c2ccc3c(c2)c(-c2ccc(N)nc2)nn3C)CC1 [compound 50, 3-(6-Aminopyridin-3-yl)-1-methyl-N-(1-methylpiperidin-4-yl)-1H-indazole-5-carboxamide]	< 6.70
CC(=O)N1CCC(NC(=O)c2ccc3c(c2)c(-c2ccc(N)nc2)nn3C)CC1 [compound 51, N-(1-Acetylpiperidin-4-yl)-3-(6-aminopyridin-3-yl)-1-methyl-1H-indazole-5-carboxamide]	< 6.70
Cn1nc(-c2ccc(N)nc2)c2cc(C(=O)NC3CCN(C(=O)OC(C)(C)C)CC3)ccc21 [compound 52, tert-Butyl 4-(3-(6-aminopyridin-3-yl)-1-methyl-1H-indazole-5-carboxamido)piperidine-1-carboxylate]	< 6.70
Cn1nc(-c2ccc(N)nc2)c2cc(C(=O)NC3CCNCC3)ccc21 [compound 53, 3-(6-Aminopyridin-3-yl)-1-methyl-N-(piperidin-4-yl)-1H-indazole-5-carboxamide]	< 6.70
Cn1nc(-c2ccc(N)nc2)c2cc(C(=O)Nc3cccc(C(=O)O)c3)ccc21 [compound 54, 3-(3-(6-Aminopyridin-3-yl)-1-methyl-1H-indazole-5-carboxamido)benzoic acid]	6.42
Cc1ccc(NC(=O)c2ccc3c(c2)c(-c2ccc(N)cc2C)nn3C)cc1C(N)=O [compound 56, 3-(4-Amino-2-methylphenyl)-N-(3-carbamoyl-4-methylphenyl)-1-methyl-1H-indazole-5-carboxamide]	7.47
CNC(=O)c1cccc(NC(=O)c2ccc3c(c2)c(-c2ccc(N)cc2C)nn3C)c1 [compound 57, 3-(4-Amino-2-methylphenyl)-1-methyl-N-(3-(methylcarbamoyl)phenyl)-1H-indazole-5-carboxamide]	7.54
Cc1ccc(NC(=O)c2ccc3c(c2)c(-c2ccc(N)cc2C)nn3C)cc1NS(C)(=O)=O [compound 58, 3-(4-Amino-2-methylphenyl)-1-methyl-N-(4-methyl-3-(methylsulfonamido)phenyl)-1H-indazole-5-carboxamide]	7.17
Cc1ccc(NC(=O)c2ccc3c(c2)c(-c2ccc(N)cc2C)nn3C)cc1 [compound 60, 3-(4-Amino-2-methylphenyl)-1-methyl-N-(p-tolyl)-1H-indazole-5-carboxamide]	7.04
Cc1cc(N)ccc1-c1nn(C)c2ccc(C(=O)Nc3ccc(C(F)(F)F)cc3)cc12 [compound 61, 3-(4-Amino-2-methylphenyl)-1-methyl-N-(4-(trifluoromethyl)phenyl)-1H-indazole-5-carboxamide]	6.05
CCOc1ccc(NC(=O)c2ccc3c(c2)c(-c2ccc(N)cc2C)nn3C)cc1 [compound 62, 3-(4-Amino-2-methylphenyl)-N-(4-ethoxyphenyl)-1-methyl-1H-indazole-5-carboxamide]	7.32
Cc1cc(N)ccc1-c1nn(C)c2ccc(C(=O)Nc3ccc(F)cc3)cc12 [compound 63, 3-(4-Amino-2-methylphenyl)-N-(4-fluorophenyl)-1-methyl-1H-indazole-5-carboxamide]	7.00
Cc1cc(N)ccc1-c1nn(C)c2ccc(C(=O)Nc3ccc(Cl)cc3)cc12 [compound 64, 3-(4-Amino-2-methylphenyl)-N-(4-chlorophenyl)-1-methyl-1H-indazole-5-carboxamide]	6.68
COc1ccc(NC(=O)c2ccc3c(c2)c(-c2ccc(NC(C)=O)cc2C)nn3C)cc1 [compound 66, 3-(4-Acetamido-2-methylphenyl)-N-(4-methoxyphenyl)-1-methyl-1H-indazole-5-carboxamide]	< 5.00
